Experimental findings from patent publication US8119563B2, “N-substituted azacycles” (FMC Corporation, priority 2003, dated 2012) are described below.

The test system of the data set is tobacco budworm (Heliothis virescens [Fabricius]). Kind of data set: surface-treated diet test, insecticidal activity against tobacco budworm. Type of data set: in vivo. Also on record: mortality: concentration or dose not given beside the values. The conditions noted are these: 0.25 millimoles of candidate insecticide on the surface of the diet, second instar larvae, five-day exposure; for Percent Mortality / mortality: compared to total number of insects infested; for Percent Growth Inhibition / pest or weed control at 0.25 mmol/well: inhibition of insect weight relative to untreated controls; for mortality / pest or weed control at 0.25 mmol/well: Heliothis virescens, 120 h; for mortality: read-out: Percent Mortality; for pest or weed control at 0.25 mmol/well: read-out: Percent Growth Inhibition. The method, then:
Candidate insecticides were evaluated for activity against the tobacco budworm (Heliothis virescens [Fabricius]) in a surface-treated diet test.
In this test one mL of molten (65-70° C.) wheat germ-based artificial diet was pipetted into each well of a four by six (24 well) multi-well plate (ID# 430345-15.5 mm dia.×17.6 mm deep; Corning Costar Corp., One Alewife Center, Cambridge, Mass. 02140). The diet was allowed to cool to ambient temperature before treatment with candidate insecticide.
For a determination of insecticidal activity, solutions of the candidate insecticides were prepared for testing using a Packard 204DT Multiprobe® Robotic System (Packard Instrument Company, 800 Research Parkway, Meriden, Conn. 06450), in which the robot first diluted a standard 50 millimolar DMSO solution of candidate insecticide with a 1:1 water/acetone solution (V/V) in a ratio of 1:7 stock solution to water/acetone. The robot subsequently pipetted 40 microliters of the so-prepared solution onto the surface of the diet in each of three wells in the 24 multi-well plate. The process was repeated with solutions of seven other candidate insecticides. Once treated, the contents of the multi-well plate were allowed to dry, leaving 0.25 millimoles of candidate insecticide on the surface of the diet, or a concentration of 0.25 millimolar. Appropriate untreated controls containing only DMSO on the diet surface were also included in this test.
For evaluations of the insecticidal activity of a candidate insecticide at varying rates of application, the test was established as described above using sub-multiples of the standard 50 millimolar DMSO solution of candidate insecticide. For example, the standard 50 millimolar solution was diluted by the robot with DMSO to give 5, 0.5, 0.05, 0.005, 0.0005 millimolar, or more dilute solutions of the candidate insecticide. In these evaluations there were six replicates of each rate of application placed on the surface of the diet in the 24 multi-well plate, for a total of four rates of application of candidate insecticide in each plate.
In each well of the test plate was placed one second instar tobacco budworm larvea, each weighing approximately five milligrams. After the larvae were placed in each well, the plate was sealed with clear polyfilm adhesive tape. The tape over each well was perforated to ensure an adequate air supply. The plates were then held in a growth chamber at 25° C. and 60% relative humidity for five days (light 14 hours/day).
After the five-day exposure period insecticidal activity for each rate of application of candidate insecticide was assessed as percent inhibition of insect weight relative to the weight of insects from untreated controls, and percent mortality when compared to the total number of insects infested.
The test compounds of formula I are identified by numbers that correspond to those in Table 1.

In the case of `CCn1nnc(-c2ccc(CN3CCC(O)(C(c4ccc(Cl)c(Cl)c4)c4ccc(Cl)c(Cl)c4)CC3)cc2)n1` [Compound 26], the “Percent Mortality” value is on record as 100% and the “Percent Growth Inhibition” value came out at 100%.
Consider `CCn1nnc(-c2ccc(CN3CCC(O)(C(c4ccc(C(F)(F)F)cc4)c4ccc(C(F)(F)F)cc4)CC3)cc2)n1` [Compound 27], for which the “Percent Mortality” value was 100% and the “Percent Growth Inhibition” value came to 100%.
On to `CCON=Cc1ccc(CN2CCC(O)(C(c3ccc(OC(F)(F)F)cc3)c3ccc(OC(F)(F)F)cc3)CC2)cc1` [Compound 28], for which the “Percent Mortality” value came out at 100% and the “Percent Growth Inhibition” value stood at 100%.
On to `CC(C)OC(=O)Nc1ccc(CN2CCC(O)(C(c3ccc(OC(F)(F)F)cc3)c3ccc(OC(F)(F)F)cc3)CC2)cc1` [Compound 29], for which the “Percent Mortality” value stood at 100% and the “Percent Growth Inhibition” value was found to be 100%.
On to `OC1(C(c2ccc(OC(F)(F)F)cc2)c2ccc(OC(F)(F)F)cc2)CCN(Cc2ccc(Oc3ncccc3C(F)(F)F)cc2)CC1` [Compound 30], for which the “Percent Mortality” value worked out at 100% and the “Percent Growth Inhibition” value amounted to 100%.
As to `CCCOc1ccc(CN2CCC(O)(C(O)(c3ccc(OC(F)(F)F)cc3)c3ccc(OC(F)(F)F)cc3)CC2)cc1` [Compound 91], the “Percent Mortality” value was 100% and the “Percent Growth Inhibition” value turned out to be 100%.
Take `CCCOc1ccc(CN2CCC(O)(C(O)(c3ccc(C(F)(F)F)cc3)c3ccc(C(F)(F)F)cc3)CC2)cc1` [Compound 92]: the “Percent Mortality” value was found to be 100% and the “Percent Growth Inhibition” value amounted to 100%.
Turning to `Cn1nnc(-c2ccc(CN3CCC(O)(C(O)(c4ccc(OC(F)(F)F)cc4)c4ccc(OC(F)(F)F)cc4)CC3)cc2)n1` [Compound 93, 4-{bis[4-(trifluoromethoxy)phenyl]hydroxymethyl}-1-{[4-(2-methyl(1,2,3,4-tetrazol-5-yl))phenyl]methyl}piperidin-4-ol], the mortality is 100% and the pest or weed control at 0.25 mmol/well is 100%.
Consider `[O-][N+]1(Cc2ccc(Oc3ccccn3)cc2)CCC(O)(C(c2ccc(C(F)(F)F)cc2)c2ccc(C(F)(F)F)cc2)CC1` (stereo not drawn) [Compound 111], for which the “Percent Mortality” value came to 100% and the “Percent Growth Inhibition” value was 100%.
With `[O-][N+]1(Cc2ccc(Oc3ncccn3)cc2)CCC(O)(C(c2ccc(OC(F)(F)F)cc2)c2ccc(OC(F)(F)F)cc2)CC1` (stereo not drawn) [Compound 112, 4-{bis[4-(trifluoromethoxy)phenyl]methyl}-4-hydroxy-1-[(4-pyrimidin-2-yloxyphenyl)methyl]piperidin-1-oxide], the mortality was found to be 100% and the pest or weed control at 0.25 mmol/well is 100%.
Take `CCn1nnc(-c2ccc(C[N+]3([O-])CCC(O)(C(c4ccc(C(F)(F)F)cc4)c4ccc(C(F)(F)F)cc4)CC3)cc2)n1` (stereo not drawn) [Compound 113]: the “Percent Mortality” value came out at 100% and the “Percent Growth Inhibition” value was 100%.
Consider `CCn1nnc(-c2ccc(C[N+]3([O-])CCC(O)(C(c4ccc(OC(F)(F)F)cc4)c4ccc(OC(F)(F)F)cc4)CC3)cc2)n1` (stereo not drawn) [Compound 114], for which the “Percent Mortality” value was found to be 100% and the “Percent Growth Inhibition” value stood at 100%.
As for `[O-][N+]1(Cc2ccc(Oc3ncccn3)cc2)CCC(O)(C(c2ccc(Cl)c(F)c2)c2ccc(Cl)c(F)c2)CC1` (stereo not drawn) [Compound 115], the “Percent Mortality” value is reported as 50% and the “Percent Growth Inhibition” value came to 100%.
For the compound `[O-][N+]1(Cc2ccc(-c3ncccn3)cc2)CCC(O)(C(c2ccc(OC(F)(F)F)cc2)c2ccc(OC(F)(F)F)cc2)CC1` (stereo not drawn) [Compound 116], the “Percent Mortality” value was determined as 100% and the “Percent Growth Inhibition” value was 100%.
Take `[O-][N+]1(Cc2ccc(Oc3ccccn3)cc2)CCC(O)(C(c2ccc(OC(F)(F)F)cc2)c2ccc(OC(F)(F)F)cc2)CC1` (stereo not drawn) [Compound 117, 4-{bis[4-(trifluoromethoxy)phenyl]methyl}-4-hydroxy-1-[(4-(2-pyridyloxy)phenyl)methyl]piperidin-1-oxide]: the mortality was 100% and the pest or weed control at 0.25 mmol/well was determined as 100%.

For orientation: mortality means the share of the test organisms that died.
